According to PMC7901699, “Challenging inflammatory process at molecular, cellular and in vivo levels via some new pyrazolyl thiazolones” (Journal of Enzyme Inhibition and Medicinal Chemistry, 2021):
Entries after “also recorded” stand apart in the source; their conditions may differ. Where two headings read alike, the source gives them in different places.

Assays:
ovine COX-1 = target: T1, ovine COX-1 (Ovis aries, UniProt P05979); test: In vitro COX-1 inhibition assay (colorimetric COX inhibitor screening kit, Cayman); assay type: biochemical; conditions: mean of three determinations
T1 construct: purchased Cayman Chemicals Inc. 560131
T1 sequence (P05979 25-600): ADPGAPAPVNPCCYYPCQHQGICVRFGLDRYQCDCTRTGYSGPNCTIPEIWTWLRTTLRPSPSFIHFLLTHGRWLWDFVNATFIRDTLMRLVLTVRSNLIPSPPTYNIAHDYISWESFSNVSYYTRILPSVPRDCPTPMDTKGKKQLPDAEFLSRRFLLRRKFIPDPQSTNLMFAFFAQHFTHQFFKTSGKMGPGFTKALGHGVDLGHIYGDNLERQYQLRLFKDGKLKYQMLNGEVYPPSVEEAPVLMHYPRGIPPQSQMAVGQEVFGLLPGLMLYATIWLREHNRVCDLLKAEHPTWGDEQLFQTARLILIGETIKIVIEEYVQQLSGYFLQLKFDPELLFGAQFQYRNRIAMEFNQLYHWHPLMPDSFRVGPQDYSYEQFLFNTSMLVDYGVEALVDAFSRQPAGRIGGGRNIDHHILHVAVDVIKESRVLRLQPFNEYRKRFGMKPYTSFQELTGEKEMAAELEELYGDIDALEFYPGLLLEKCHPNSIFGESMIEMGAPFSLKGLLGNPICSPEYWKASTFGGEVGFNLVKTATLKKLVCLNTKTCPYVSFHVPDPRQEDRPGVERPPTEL
Experimental: (§1) Both assays were carried out in compliance with the manufacturer’s instructions and in accordance to prior studies[29]^,[33].
(§2) IC50 values (μM) and selectivity indices (SI) were calculated.

15-LOX = target: T2, 15-LOX (Glycine max, UniProt P08170); test: In vitro 15-LOX inhibition assay (lipoxygenase inhibitor screening kit, Cayman); assay type: biochemical; conditions: mean of three determinations
T2 construct: purchased Cayman chemicals 760700
T2 sequence (P08170 1-839): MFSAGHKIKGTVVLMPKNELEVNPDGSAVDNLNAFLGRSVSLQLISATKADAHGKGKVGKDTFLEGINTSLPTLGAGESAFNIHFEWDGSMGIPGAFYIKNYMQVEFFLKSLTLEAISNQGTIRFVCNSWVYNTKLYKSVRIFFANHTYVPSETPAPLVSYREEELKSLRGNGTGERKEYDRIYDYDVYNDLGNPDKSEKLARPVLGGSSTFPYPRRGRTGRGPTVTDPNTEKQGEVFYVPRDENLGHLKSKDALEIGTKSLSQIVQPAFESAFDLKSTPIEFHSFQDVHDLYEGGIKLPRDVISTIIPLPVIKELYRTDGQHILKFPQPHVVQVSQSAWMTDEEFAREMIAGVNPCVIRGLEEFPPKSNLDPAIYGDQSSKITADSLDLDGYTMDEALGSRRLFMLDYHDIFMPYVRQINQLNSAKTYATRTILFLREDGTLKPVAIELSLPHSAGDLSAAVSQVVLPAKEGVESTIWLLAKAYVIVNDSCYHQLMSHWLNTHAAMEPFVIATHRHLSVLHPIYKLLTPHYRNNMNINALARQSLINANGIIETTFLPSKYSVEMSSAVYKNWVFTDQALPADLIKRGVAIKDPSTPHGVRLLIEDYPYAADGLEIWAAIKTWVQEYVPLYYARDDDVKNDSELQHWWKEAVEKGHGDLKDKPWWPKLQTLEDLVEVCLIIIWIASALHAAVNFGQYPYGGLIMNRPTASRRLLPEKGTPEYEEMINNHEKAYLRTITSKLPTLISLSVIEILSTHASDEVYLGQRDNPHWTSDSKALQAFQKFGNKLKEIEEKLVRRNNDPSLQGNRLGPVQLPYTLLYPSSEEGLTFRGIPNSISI
Experimental: as §1, §2

THP-1 cells [1] = test: Monocyte-to-macrophage differentiation assay, M1 polarisation (PMA then LPS); assay type: cell-based, human; conditions: for IC50: Homo sapiens, THP-1, 6 h pre-incubation, PMA 25 nM 24 h then LPS 100 ng/ml 72 h, MTS, read-out: IC50 inhibition of THP-1 monocyte differentiation into M1 macrophages
Experimental: (§3) Monocytes were cultured and differentiated as described previously. THP-1 cells (human acute monocytic leukaemia lineage, American Type Culture Collection, Manassas, VA) were seeded at a density of 20 × 10^5 cells/ml. A set of cells were exposed to 25 nM of phorbol myristate-acetate (PMA, Calbiochem, Darmstadt, Germany) for 24 h to drive differentiation. Another set was similarly treated with PMA followed by 100 ng/ml of lipopolysaccharide (LPS, invivogen, San Diego, CA, USA) for 72 h. After incubation, the supernatant was aspirated and the density of the adherent cells was estimated using MTS colorimetric cell viability kit (Abcam, Cambridge, UK). The inhibitory actions of different compounds on the differentiation process were evaluated by pre-incubation with different concentrations of each compound for 6 h. Cell viability after treatment was normalised to the reading after PMA exposure following a 6-h incubation with DMSO. All experiments were conducted in triplicates. A positive control for the effect of COX1/COX2 inhibition on monocyte-to-macrophage differentiation was obtained by treatment with diclofenac. IC50 values for each compound were determined by non-linear regression as the best fit values of the log [inhibitor] vs. response curve using GraphPad Prism software.

human recombinant COX-2 = target: T3, human recombinant COX-2 (Homo sapiens, UniProt P35354); test: In vitro COX-2 inhibition assay (colorimetric COX inhibitor screening kit, Cayman); assay type: biochemical
T3 construct: purchased Cayman Chemicals Inc. 560131
T3 sequence (P35354 18-604): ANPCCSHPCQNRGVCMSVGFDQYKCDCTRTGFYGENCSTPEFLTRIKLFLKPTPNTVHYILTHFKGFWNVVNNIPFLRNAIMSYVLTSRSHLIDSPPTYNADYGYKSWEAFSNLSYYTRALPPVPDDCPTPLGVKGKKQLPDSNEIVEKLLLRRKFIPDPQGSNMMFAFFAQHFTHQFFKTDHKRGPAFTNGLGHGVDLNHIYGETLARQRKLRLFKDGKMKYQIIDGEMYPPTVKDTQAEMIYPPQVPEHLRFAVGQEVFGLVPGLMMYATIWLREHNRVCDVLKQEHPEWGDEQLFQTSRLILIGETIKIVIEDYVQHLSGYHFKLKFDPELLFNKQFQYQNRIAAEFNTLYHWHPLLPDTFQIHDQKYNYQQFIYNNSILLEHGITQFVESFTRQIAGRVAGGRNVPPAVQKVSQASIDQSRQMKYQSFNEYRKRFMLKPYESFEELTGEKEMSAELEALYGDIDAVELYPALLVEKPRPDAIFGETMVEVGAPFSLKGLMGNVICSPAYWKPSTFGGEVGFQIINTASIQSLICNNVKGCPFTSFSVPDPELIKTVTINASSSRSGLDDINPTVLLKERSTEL
Experimental: as §1, §2

rat stomach [2] = test: Gastric ulcerogenic activity and histopathological examination; conditions: stomach removed on 8th day of administration, 5 mg/kg oral
[3] = tested on: PMA/LPS-stimulated THP-1 (M1 macrophages); test: Cytotoxicity assay on differentiated M1 macrophages (MTS); assay type: cell-based, human; conditions: PMA 24 h, LPS 24 h, then compound 24 h; up to 100 μM
Experimental: To confirm that the previous observations were a consequence of interference of the compounds with the differentiation process rather than a reduction in monocyte viability, THP-1 monocytes were incubated with different concentrations of the compound for 30 h. No difference in cell viability was detected. Moreover, the cytotoxic effects of the drugs on differentiated macrophages were evaluated. Following the incubation of THP-1 cells with 25 nM PMA for 24 h and 100 ng/ml LPS for 24 h, the differentiated macrophages were treated with different concentrations of the compounds for 24 h. Cell viability was assessed using MTS colorimetric cell viability kit (Abcam, Cambridge, UK).

IL-1β = IL-1β protein expression by Western blotting; assay type: cell-based, human; conditions: 100 μM compound; PMA 24 h then LPS 72 h; normalised to GAPDH
Experimental: THP-1 monocytes were exposed to 100 μM of the test compounds, activated with 25 nM PMA for 24 h followed by 100 ng/ml LPS for 72 h. At the end of the incubation period, cells were harvested, proteins were extracted and SDS-PAGE electrophoresis, blotting, and antibody probing were conducted as described previously. Primary rabbit polyclonal antibodies to IL-1β, procaspase-3, and GAPDH were obtained from Abcam (Cambridge, UK). Clarity Western ECL substrate (BioRad, Hercules, CA, USA) was used to obtain a chemiluminescence signal captured by a Chemidoc imaging system (BioRad, Hercules, CA, USA). Band density was estimated using ImageJ software (National Institutes of Health, Bethesda, MD) and normalised to the GAPDH band density as a loading control.

rat stomach [4] = conditions: in vivo, po, 5 mg/kg
THP-1 cells [5] = test: Monocyte-to-macrophage differentiation assay, resting M0 macrophages (PMA only); assay type: cell-based, human; conditions: data not shown
Experimental: as §3

Gross observation of isolated rat stomachs (rat stomach [4])	SMILES	IC50 (ovine COX-1)	IC50 (15-LOX)	IC50 (THP-1 cells [1])	Inhibition of THP-1 differentiation into M1 macrophages (in words) (THP-1 cells [1]; PMA then LPS, diclofenac as reference)	SI (COX-1/ COX-2) (human recombinant COX-2; IC50 (COX-1)/IC50 (COX-2))	IC50 (human recombinant COX-2; mean of three determinations)	Gross observation of isolated rat stomachs (rat stomach [2])	Histopathological examination of stomach gastric layers (rat stomach [2]; H&E, 5 mg/kg)	M1 macrophage cell viability [3]	IL-1β expression in PMA/LPS-challenged THP-1 (IL-1β)	Histopathological examination of stomach gastric layers (rat stomach [4])	IC50 for M0 macrophage differentiation (in words) (THP-1 cells [5])
–	O=C1N=C(N2CCOCC2)S/C1=C\c1cn(-c2ccccc2)nc1-c1ccccc1 [Compound 4, (Z)-5-((1,3-diphenyl-1H-pyrazol-4-yl)methylene)-2-morpholinothiazol-4(5H)-one]	11.3 µM	4.63 µM	11.3 µM	potent inhibitory effects on monocyte-to-macrophage differentiation; also recorded: higher potency compared to diclofenac	80	0.14 µM	variable levels of hyperaemia without gross ulceration	esophago-gastric inflammation; also recorded: gastro-esophageal inflammatory infiltrates	tended to slightly decrease	attenuating IL-1β production	–	–
normal stomach texture	Cc1ccc(-c2cc(C(F)(F)F)nn2-c2ccc(S(N)(=O)=O)cc2)cc1 [Celecoxib]	–	–	–	–	–	–	–	–	–	–	no ulceration with normal gastro-esophageal junction	–
–	O=C(O)Cc1ccccc1Nc1c(Cl)cccc1Cl [Diclofenac Na, Diclofenac sodium, reference compound]	–	–	101 µM	–	–	–	normal stomach texture	–	–	–	–	comparable IC50 to that observed for the M1 macrophage differentiation
